Measured values published in US20240298638A1, “METHODS AND COMPOSITIONS FOR REDUCING MICROBIAL CONTAMINANTS DURING POULTRY PROCESSING” (DIVERSEY, INC., priority 2020, published 2024).

System: Salmonella Enterica ATCC 10708
Assay: Antimicrobial efficacy on inoculated chicken drumettes (log10 reduction, nBPW neutralizer; Colby synergy)
Format: cell-based
Conditions: for Observed Average Reduction (AntiLog10 value): antiLog10 of the observed log10 reduction; for Observed Average Reduction (AntiLog10 value) / Observed Average Log10 Reduction: Salmonella Enterica ATCC 10708; for Observed Average Log10 Reduction: chicken drumettes soaked 90 seconds in composition, recovery in nBPW neutralizer

CC(O)CO (centres unmarked) [Propylene glycol]
antimicrobial efficiency of the organic solvent by itself (by itself): did not provide any antimicrobial efficiency

CCC(=O)O [propionic acid]
Observed Average Reduction (AntiLog10 value): 6.17
Observed Average Log10 Reduction: 0.79 log10

CC(=O)OO [PAA, peracetic acid]
Observed Average Reduction (AntiLog10 value): 14.15
Observed Average Log10 Reduction: 1.16 log10
